In ChEMBL document CHEMBL6103628, “Structural Optimization of Covalent Inhibitors for Deubiquitinase ChlaDUB1 of Chlamydia trachomatis as Antibiotic Agents” (J Med Chem, 2025):
pIC50: −log10 of the molar value. Calls of active or inactive are those of the source. The calls are words filed in the database; no cut-off is given here.

Legend:
Staphylococcus aureus = assay: Antimicrobial activity against methicillin- resistant Staphylococcus aureus JE2 upto 256 microg/ml incubated for 20 hrs by resazurin staining based microtiter plate reader analysis; assay type: functional, organism-based; settings: dose <= 256.0 µg/ml
[1] = target: T1, Deubiquitinase and deneddylase Dub1 (Chlamydia trachomatis serovar L2 (strain ATCC VR-902B / DSM 19102 /434/Bu)) (UniProt B0B9A0); assay: Inhibition of recombinant Chlamydia trachomatis DUB1 (130 to 401 residues) using Ub-Rh110Gly as fluorogenic substrate at 100 to 500 uM incubated for 20 to 240 mins by enzymatic analysis relative to control; settings: dose 100-500 µM, time 20-240 min
T1 sequence (whole entry): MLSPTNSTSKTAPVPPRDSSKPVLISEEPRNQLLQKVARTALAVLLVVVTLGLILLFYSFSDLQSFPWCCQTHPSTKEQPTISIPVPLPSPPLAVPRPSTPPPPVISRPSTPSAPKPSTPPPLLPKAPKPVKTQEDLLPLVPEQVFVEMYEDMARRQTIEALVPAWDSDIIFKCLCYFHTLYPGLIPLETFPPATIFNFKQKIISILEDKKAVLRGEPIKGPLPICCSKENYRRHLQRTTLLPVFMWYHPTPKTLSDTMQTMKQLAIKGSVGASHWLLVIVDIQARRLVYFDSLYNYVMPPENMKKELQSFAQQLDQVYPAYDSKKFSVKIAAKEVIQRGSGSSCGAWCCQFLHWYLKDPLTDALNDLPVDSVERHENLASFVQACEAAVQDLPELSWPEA

[2] = target: T2, Deubiquitinase and deneddylase Dub1 (Chlamydia trachomatis serovar L2 (strain ATCC VR-902B / DSM 19102 /434/Bu), UniProt B0B9A0); assay: Inhibition of recombinant Chlamydia trachomatis DUB1 (130 to 401 residues) using Ub-Rh110Gly as fluorogenic substrate incubated for 60 mins by enzymatic analysis; settings: read-out: IC50
T2 sequence (B0B9A0 whole entry): T1 sequence (whole entry)

## N#Cc1nccc(C(=O)NCc2nn(C(=O)Cc3ccccc3)c3ccccc23)n1
Staphylococcus aureus
  Activity: inactive
[1]
  inhibition: Active; Partial Inhibition Observed
[2]
  pIC50: 6.01
